The record followed here is PubChem BioAssay (NCI).

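How tested: cells in 96-well plates exposed to compound for 48 hours at five concentrations. GI50 is the concentration that inhibits growth by half. Definition used: TGI = concentration required for complete inhibition of growth.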

Common to all, as to test: NCI anticancer screen, dose series, 48 h
Assay [1] has as its system ACHN renal.
Assay [2] has as its system HCT-15 colon.
Assay [3] relates to M14 melanoma.
The subject of assay [4] is SNB-19 CNS.
Assay [5] concerns SK-MEL-2 melanoma.
The test system of assay [6] is MALME-3M melanoma.
Assay [7] deals with SK-MEL-28 melanoma.
The test system of assay [8] is EKVX NSCLC.
For assay [9], the system named is SF-268 CNS.
In assay [10] the test system is LOX IMVI melanoma.

For `COc1cc(Cl)cc(=O)c(O)c1OC`, the TGI in assay [1], in assay [2], in assay [3], in [4], in assay [5] and in [6] was greater than 100 µM throughout. The TGI in [7] is greater than 100 µM; in [8], greater than 91.8 µM; in [9] it was greater than 100 µM; in [10] it was greater than 100 µM.

Turning to `O=c1ncccn1[C@@H]1O[C@H](CO)[C@H](O)C1O` (some centres undefined), the TGI in [1], in assay [2], in assay [3], in assay [4], in assay [5] and in [6] was greater than 100 µM in each case. Also, the TGI in assay [7], in [8], in assay [9] and in [10] was greater than 100 µM throughout.

Consider `O=C(Nc1cccc(Cl)c1)Nn1cnnc1`, for which the GI50 in assay [1], in [2], in assay [3], in [4], in [5] and in [6] was greater than 50 µM each time. Besides, the GI50 in [7], in assay [9] and in [10] was greater than 50 µM throughout. For the same molecule, the TGI in assay [1], in assay [2], in assay [3], in assay [4], in assay [5] and in assay [6] was greater than 100 µM throughout. Further, the TGI is greater than 100 µM in [7], greater than 100 µM in [8], greater than 100 µM in assay [9] and greater than 50 µM in [10].

As to `c1cc[c]([Sn][c]2ccccc2)cc1`, the GI50 in assay [1] is 27.2 µM; in assay [2], 20.5 µM; in assay [3], 24.4 µM; in [4] it was 20 µM; in assay [5], 15.9 µM; in assay [6] it was 23.2 µM. In addition, the GI50 is 14.5 µM in assay [7], 28.3 µM in [8], 14.5 µM in assay [9] and 20.6 µM in [10]. In addition, the TGI worked out at 69.8 µM in assay [1]; 41 µM in assay [2]; 56.7 µM in assay [3]; 61 µM in assay [4]; 37.7 µM in assay [5]; 47.7 µM in assay [6]. Also, the TGI in [7] was 36 µM; in [8], greater than 61.2 µM; in [9], 25 µM; in assay [10], 42 µM.

As to `C1CSCCCSCCCSCCCSCCCSCCCSCCCSCCCSC1`, the TGI in assay [1], in assay [2], in assay [3], in [4], in assay [5] and in assay [6] was greater than 100 µM in each case. The TGI in assay [7], in assay [8], in assay [9] and in assay [10] was greater than 100 µM in each case.

For `O=C(c1ccc2ccccc2c1)c1c(C(F)(F)F)n([O-])c2ccc(C(F)(F)F)cc2[n+]1=O`, the GI50 in assay [1] was 0.566 µM; in [2], 0.732 µM; in [3] it was 1.54 µM; in [4], 1.76 µM; in assay [5], 1.96 µM; in assay [6], 1.2 µM. The GI50 in assay [7] is 1.48 µM; in assay [8], 1.54 µM; in assay [9] it was 0.783 µM; in assay [10], 0.191 µM. Also, the TGI in assay [1] stood at 1.71 µM; in assay [2], 2.07 µM; in assay [3], 2.95 µM; in assay [4], 3.2 µM; in assay [5] it was 3.77 µM; in assay [6], 2.71 µM. Moreover, the TGI was found to be 2.86 µM in [7], 3.2 µM in assay [8], 2.37 µM in [9] and 0.363 µM in assay [10].

`CCSC1=NC2C(N(CC)C(=O)N2CC)N1/N=C/C=C/c1ccccc1[N+](=O)[O-]` (centres undefined): the GI50 in assay [1] is 0.121 µM; in assay [2] it was 0.204 µM; in assay [3], 0.184 µM; in assay [4], 0.372 µM; in [5] it was 0.567 µM; in assay [6] it was 0.135 µM. Moreover, the GI50 is 5.83 µM in [7], 0.314 µM in assay [8], 0.486 µM in assay [9] and 0.126 µM in assay [10]. Further, the TGI in assay [1], in assay [2], in [3], in assay [4], in [5] and in assay [6] was greater than 100 µM each time. Moreover, the TGI in assay [7], in [8], in assay [9] and in assay [10] was greater than 100 µM in each case.

Consider `O=C1/C(=C/c2ccc([N+](=O)[O-])cc2)CN(C(=O)CCN2CCC(=NO)CC2)C/C1=C\c1ccc([N+](=O)[O-])cc1`, for which the GI50 in assay [1] was 0.893 µM; in assay [2], 0.771 µM; in [3], 1.51 µM; in assay [4], 1.08 µM; in assay [5], 4.74 µM; in assay [6] it was 2.04 µM. For the same molecule, the GI50 in [7] is 1.93 µM; in assay [8], 2.3 µM; in assay [9], 1.07 µM; in assay [10], 0.296 µM. In addition, the TGI was found to be 2.46 µM in [1]; 3.9 µM in assay [2]; 6.4 µM in [3]; 5.13 µM in assay [4]; 16.6 µM in assay [5]; 6.9 µM in assay [6]. Also, the TGI in assay [7] was 4.72 µM; in assay [8] it was 10.1 µM; in assay [9] it was 6.01 µM; in [10], 0.739 µM.

Regarding `CCOC(=O)NC(=O)c1cn(CCN2CCN(C(=O)NCCCCCCNC(=O)N3CCN(CCn4cc(C(=O)NC(=O)OCC)c(=O)[nH]c4=O)CC3)CC2)c(=O)[nH]c1=O`, the TGI in [1], in assay [2], in assay [3], in assay [4], in assay [5] and in [6] was greater than 100 µM each time. Further, the TGI in [7], in assay [8], in [9] and in assay [10] was greater than 100 µM each time.
